Like-named read-outs stand apart in the source and are kept apart here.

Experiment [1] deals with NADPH-oxidase activation (H2O2 release) in Monocytes. Briefly: Respiratory burst (H2O2 assay) in monocytes. Type of experiment: cell-based, human. The note with it: for inhibition at 0.4 µM / inhibition at 1 µM / inhibition at 0.0005 µM / inhibition at 0.001 µM / inhibition at 25 µM / inhibition at 50 µM / inhibition at 100 µM: Homo sapiens, Monocyte; for inhibition at 0.4 µM: [cpd] 0.4 μM; for inhibition at 1 µM: [cpd] 1.0 μM; for respiratory burst / NADPH-oxidase activation induced by PMA in monocytes (in words): PMA 200 ng/ml; for inhibition at 25 µM: [cpd] 25 μM; for inhibition at 50 µM: [cpd] 50 μM; for inhibition at 100 µM: [cpd] 100 μM. On the procedure:
(§1) NADPH-oxidase activation was measured as induction of H2O2 release (derived from dismutation of O2^−) triggered in PMNs and monocytes by PMA (200 ng/ml). Briefly, PMNs and monocytes were pretreated at 37° C. for 30-60 min with test compound at different concentrations, and stimulated with phorbol 12-myristate 13-acetate (PMA, 200 ng/ml) dissolved in 0.5 ml of a standard reaction mixture. Release of H2O2 was evaluated in real time at time points of 5 min by using a microplate fluorescence reader (Perkin-Elmer). Results are expressed as nmoles of H2O2 released over time by 10^6 cells. Shown are dose-response curves of inhibitory effect on H2O2 release over 60 min.

Experiment [2] concerns V-ATPase. The following applies: cited from earlier work; for inhibition of V-ATPase (in words): literature.
The test system of experiment [3] is rat ovariectomized model. The note with it: cited from earlier work.
The subject of experiment [4] is NADPH-oxidase activation (H2O2 release) in PMNs. Briefly: Respiratory burst (H2O2 assay) in PMNs. Type of experiment: cell-based, human. The following applies: for inhibition at 0.0005 µM / inhibition at 0.001 µM / inhibition at 25 µM / inhibition at 50 µM / inhibition at 100 µM: Homo sapiens, read-out: Inhibition of H2O2 release induced by PMA in PMNs (% PMA control); for inhibition at 25 µM: [cpd] 25 μM; for inhibition at 50 µM: [cpd] 50 μM; for inhibition at 100 µM: [cpd] 100 μM. As for the experimental part: as §1

The mark [5] stands for this setting: 0.5 h, 30 min, read-out: Inhibition of H2O2 release induced by PMA in Monocytes (% PMA control).
[6] abbreviates: 40 min, 40 min, read-out: Inhibition of H2O2 release induced by PMA in Monocytes (% PMA control).
Where [7] appears, read: 50 min, 50 min, read-out: Inhibition of H2O2 release induced by PMA in Monocytes (% PMA control).

Broadly, the inhibition is the change of the read-out against control, counted positive when it falls. In the case of `O=C(Nc1cccc2c1nc(C(F)(F)F)n2CC(=O)N1CCOCC1)c1c(Cl)cccc1Cl` [FR-177995], the inhibition at 0.4 µM in experiment [1] (setting [5]) was 27.1%; in experiment [1] (setting [6]) it was 29%; in experiment [1] (setting [7]), 26.7%. Also, the inhibition at 1 µM turned out to be 21.3% in experiment [1] (setting [5]), 6.3% in experiment [1] (setting [6]) and 5.5% in experiment [1] (setting [7]). Further, the “respiratory burst / NADPH-oxidase activation induced by PMA in monocytes (in words)” value in experiment [1] is given as “had effect”. Moreover, the “concentrations generally active in inhibiting V-ATPase” value in experiment [2] is 0.4 to 1 µM. Besides, the anti-osteoporotic activity entry in experiment [3] is given as “high anti-osteoporotic activity”.

As to `CO/C1=C\C(C)=C\[C@@H](C)[C@@H](O)[C@@H](C)C/C(C)=C/C=C/[C@H](OC)[C@@H]([C@@H](C)[C@@H](O)[C@H](C)[C@@]2(O)C[C@@H](O)[C@H](C)[C@@H](C(C)C)O2)OC1=O` [Bafilomycin A1], the inhibition at 0.0005 µM in experiment [4] (0.5 h, [cpd] 0.0005 μM, 30 min) turned out to be 7.1%; in experiment [4] (40 min, [cpd] 0.0005 μM, 40 min), 9.8%; in experiment [4] (50 min, [cpd] 0.0005 μM, 50 min) it was 9.3%; in experiment [1] (0.5 h, [cpd] 0.0005 μM, 30 min, read-out: Inhibition of H2O2 release induced by PMA in Monocytes (% PMA control)) it was 22.1%; in experiment [1] (40 min, [cpd] 0.0005 μM, 40 min, read-out: Inhibition of H2O2 release induced by PMA in Monocytes (% PMA control)) it was 28.2%; in experiment [1] (50 min, [cpd] 0.0005 μM, 50 min, read-out: Inhibition of H2O2 release induced by PMA in Monocytes (% PMA control)), 32.4%. The inhibition at 0.001 µM amounted to 26.4% in experiment [4] (0.5 h, [cpd] 0.001 μM, 30 min); 27.2% in experiment [4] (40 min, [cpd] 0.001 μM, 40 min); 29.9% in experiment [4] (50 min, [cpd] 0.001 μM, 50 min); 30.8% in experiment [1] (0.5 h, [cpd] 0.001 μM, 30 min, read-out: Inhibition of H2O2 release induced by PMA in Monocytes (% PMA control)); 37.2% in experiment [1] (40 min, [cpd] 0.001 μM, 40 min, read-out: Inhibition of H2O2 release induced by PMA in Monocytes (% PMA control)); 47.9% in experiment [1] (50 min, [cpd] 0.001 μM, 50 min, read-out: Inhibition of H2O2 release induced by PMA in Monocytes (% PMA control)). In addition, in experiment [1] (1 nM concentration, read-out: inhibition of the respiratory burst in monocytes), the inhibition at 0.001 µM was determined as 48%. For the same compound, the “inhibition of V-ATPase (in words)” value in experiment [2] is “very potent and highly specific inhibitors”.

With `C/C=C/[C@H]1O[C@@](O)([C@@H](C)[C@H](O)[C@H](C)[C@H]2OC(=O)/C(OC)=C/C(C)=C/[C@@H](C)[C@@H](O)[C@@H](CC)[C@@H](O)[C@H](C)C/C(C)=C/C=C/[C@@H]2OC)C[C@@H](O[C@H]2C[C@@H](O)[C@H](OC(N)=O)[C@@H](C)O2)[C@@H]1C` [Concanamycin A1, Concanamycin A], the “inhibition of the release of oxygen radicals in PMNs” value in experiment [4] (10 nM concentration) stood at 58%. The “Inhibition of H2O2 release induced by PMA in PMNs (% PMA control)” value in experiment [4] ([cpd] 0.0005 μM, 30 min) is reported as 33.4%; in experiment [4] ([cpd] 0.0005 μM, 40 min) it was 35.2%; in experiment [4] ([cpd] 0.0005 μM, 50 min), 38.9%; in experiment [4] ([cpd] 0.001 μM, 30 min), 36.2%; in experiment [4] ([cpd] 0.001 μM, 40 min), 45.0%; in experiment [4] ([cpd] 0.001 μM, 50 min) it was 56.4%. For the same compound, the “Inhibition of H2O2 release induced by PMA in PMNs (% PMA control)” value stood at 50.2% in experiment [4] ([cpd] 0.010 μM, 30 min); 58.3% in experiment [4] ([cpd] 0.010 μM, 40 min); 58.3% in experiment [4] ([cpd] 0.010 μM, 50 min). Moreover, the “inhibition of the release of oxygen radicals in monocytes” value in experiment [1] (10 nM concentration) was found to be 50%. Also, the “Inhibition of H2O2 release induced by PMA in Monocytes (% PMA control)” value in experiment [1] ([cpd] 0.0005 μM, 30 min) was found to be 17.0%; in experiment [1] ([cpd] 0.0005 μM, 40 min), 26.3%; in experiment [1] ([cpd] 0.0005 μM, 50 min), 33.3%; in experiment [1] ([cpd] 0.001 μM, 30 min) it was 35.7%; in experiment [1] ([cpd] 0.001 μM, 40 min), 43.4%; in experiment [1] ([cpd] 0.001 μM, 50 min) it was 50.2%. Further, in experiment [2], the “inhibition of V-ATPase (in words)” value was “very potent and highly specific inhibitors”.

Take `CCN1C(=O)C=CC1=O` [NEM, N-ethylmaleimide]: the inhibition at 25 µM in experiment [4] (0.5 h, 30 min) was 100%; in experiment [4] (40 min, 40 min), 100%; in experiment [4] (50 min, 50 min) it was 100%; in experiment [1] (setting [5]), 100%; in experiment [1] (setting [6]), 100%; in experiment [1] (setting [7]), 100%. Moreover, the inhibition at 50 µM in experiment [4] (0.5 h, 30 min) was 100%; in experiment [4] (40 min, 40 min), 100%; in experiment [4] (50 min, 50 min), 100%; in experiment [1] (setting [5]), 100%; in experiment [1] (setting [6]), 100%; in experiment [1] (setting [7]), 100%. The inhibition at 100 µM in experiment [4] (0.5 h, 30 min) was determined as 100%; in experiment [4] (40 min, 40 min) it was 100%; in experiment [4] (50 min, 50 min), 100%; in experiment [1] (setting [5]) it was 100%; in experiment [1] (setting [6]), 100%; in experiment [1] (setting [7]) it was 100%. The “respiratory burst / NADPH-oxidase activation induced by PMA in PMNs (in words)” value in experiment [4] (PMA 200 ng/ml) is listed as “completely blocked”. For the same compound, the “respiratory burst / NADPH-oxidase activation induced by PMA in monocytes (in words)” value in experiment [1] was “completely blocked”. Further, the “concentrations generally active in inhibiting V-ATPase” value in experiment [2] was more than 25 µM.

Values taken from patent publication US20080317857A1, “V-Atpase Inhibitors of Use in the Treatment of Septic Shock” (Brane Discovery S.r.l., priority 2005, published 2008).
